Laboratory results reported in patent EP4603105A1, “PHARMACEUTICAL COMPOSITION CONTAINING CYCLIC COMPOUND HAVING SELECTIVE KRAS INHIBITORY EFFECT AGAINST HRAS AND NRAS” (CHUGAI SEIYAKU KABUSHIKI KAISHA, priority 2022, dated 2024).
Like-named read-outs stand apart in the source and are kept apart here.

Experiments:
[1] = target: GDP-bound KRAS wild-type protein (Homo sapiens, UniProt P01116); assay: Binding to KRAS by surface plasmon resonance (SPR), dissociation constant KD
How it was run: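 Compound binding is evaluated by SPR single-cycle kinetics, with concentrations added intermittently from low to high for 75 s each. Target surfaces carry GDP-loaded biotinylated Avi-RAS at about 100–300 RU, regenerated after each cycle; temperature 30°C. A 1:1 binding model gives KD.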

[2] = target: GDP-bound NRAS wild-type protein (Homo sapiens, UniProt P01111); assay: Binding to NRAS by surface plasmon resonance (SPR), KD and KD ratio to KRAS
How it was run: (§1)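 Each cycle, GDP-bound biotin-Avi RAS was captured (~100–300 RU), compound concentrations were injected low to high for 75 s each at 100 µL/min, then the chip was regenerated. Buffer: HBS pH 7.4, 10 mM MgCl2, 10 µM GDP, 1 mM DTT, 4% DMSO; 30°C. KD from a 1:1 binding model.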

HRAS wild-type protein = HRAS wild-type protein (Homo sapiens, UniProt P01112); assay: Binding to HRAS by surface plasmon resonance (SPR), KD and KD ratio to KRAS
How it was run: as §1

[3] = system: human lung cancer strain NCI-H441; assay: NCI-H441 cell proliferation inhibitory activity (CellTiter-Glo, 4 days); type: cell-based; conditions: read-out: NCl-H441 IC50
How it was run: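 Signal came from […] measured per well once the reagent was added. Beforehand, cells were cultured at 37°C and 5% carbon dioxide on a compound series serially diluted in dimethyl sulfoxide.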

[4] = ratio of KD for GDP-bound NRAS wild-type protein to KD for KRAS
[5] = ratio of KD for HRAS wild-type protein to KD for KRAS
[6] = Single Cycle Kinetics, 1:1 binding model
[7] = ratio of KD with respect to GDP-bound NRAS wild-type protein to KD with respect to KRAS
[8] = ratio of KD with respect to HRAS wild-type protein to KD with respect to KRAS
[9] = 50% proliferation inhibitory concentration, four days

Sequence of HRAS wild-type protein (P01112 whole entry): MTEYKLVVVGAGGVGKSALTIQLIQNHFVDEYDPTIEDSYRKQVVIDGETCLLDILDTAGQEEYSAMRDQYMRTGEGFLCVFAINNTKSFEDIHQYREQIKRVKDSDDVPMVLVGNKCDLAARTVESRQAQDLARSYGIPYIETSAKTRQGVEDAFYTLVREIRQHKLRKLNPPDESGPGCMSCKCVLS
Sequence of GDP-bound KRAS wild-type protein (P01116 1-188 isoform P01116-2): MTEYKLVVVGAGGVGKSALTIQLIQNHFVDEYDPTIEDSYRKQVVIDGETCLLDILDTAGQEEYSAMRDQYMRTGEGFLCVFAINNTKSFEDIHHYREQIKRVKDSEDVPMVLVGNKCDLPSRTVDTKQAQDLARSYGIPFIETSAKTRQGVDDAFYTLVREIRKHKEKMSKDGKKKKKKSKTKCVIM
Sequence of GDP-bound NRAS wild-type protein (P01111 whole entry): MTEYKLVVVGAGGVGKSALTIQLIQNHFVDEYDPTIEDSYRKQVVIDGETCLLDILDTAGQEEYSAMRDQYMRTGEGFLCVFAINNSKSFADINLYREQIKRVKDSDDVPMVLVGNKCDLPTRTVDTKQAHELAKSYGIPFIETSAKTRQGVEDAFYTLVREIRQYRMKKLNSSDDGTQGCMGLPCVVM

SMILES	Kd ([1]; Single Cycle Kinetics) [nM]	NRAS /KRAS [2, 4]	HRAS /KRAS (HRAS wild-type protein; [5])	IC50 ([3]; NCI-H441 cells, 4 days) [nM]	Kd [1, 6] [nM]	NRAS /KRAS [2, 7]	HRAS /KRAS (HRAS wild-type protein; [8])	IC50 [3, 9] [nM]	Kd ([1]; 1:1 binding model) [nM]
CCC[C@H]1C(=O)N[C@@H]([C@@H](C)CC)C(=O)N(C)CC(=O)N(C)[C@H]2C/C=C\CCN(C2=O)[C@@H](Cc2ccc(C(F)(F)F)cc2)C(=O)N(C)CC(=O)N[C@@H](CCc2ccc(C(F)(F)F)c(Cl)c2)C(=O)N2CC3(CC3)C[C@H]2C(=O)N(C)C2(CCC2)C(=O)N(C)[C@@H]([C@@H](C)CC)C(=O)N(C)[C@H](C(=O)N(C)C)CC(=O)N1C [PP3299]	0.11	A (a compound having 10 or more and less than 20 is denoted as A)	A (a compound having 10 or more and less than 20 is denoted as A)	8.1					
CCO[C@@H]1C[C@H]2C(=O)NC3(CCCC3)C(=O)N(C)[C@@H](C(CC)CC)C(=O)N(C)[C@H](C(=O)N3CCCC3)CC(=O)N(C)[C@@H](COC)C(=O)N[C@@H]([C@@H](C)CC)C(=O)N(C)CC(=O)N(C)[C@H]3C/C=C\CCN(C3=O)[C@@H](CC3CCC(F)(F)CC3)C(=O)N(C)CC(=O)N[C@@H](CCc3cc(F)c(C(F)(F)F)c(F)c3)C(=O)N2C1 [PP1441]					0.7	A (a compound having 10 or more and less than 20 is denoted as A)	A (a compound having 10 or more and less than 20 is denoted as A)	87.6	
CCO[C@@H]1C[C@H]2C(=O)NC3(CCC3)C(=O)N(C)[C@@H](C(CC)CC)C(=O)N(C)[C@H](C(=O)N(C)C)CC(=O)N(C)[C@@H](CC(C)C)C(=O)N[C@@H]([C@@H](C)CC)C(=O)N(C)CC(=O)N(C)[C@H]3C/C=C\CCN(C3=O)[C@@H](Cc3ccc(C(F)(F)F)cc3)C(=O)N(C)CC(=O)N[C@@H](CCc3ccc(Cl)c(Cl)c3)C(=O)N2C1 [PP1217]					0.48	AA (a compound having 20 or more is denoted as AA)	A (a compound having 10 or more and less than 20 is denoted as A)	17.8	
CCCOC[C@H]1C(=O)N[C@@H]([C@@H](C)CC)C(=O)N(C)CC(=O)N(C)[C@H]2C/C=C\CCN(C2=O)[C@@H](Cc2ccc(C)cc2)C(=O)N(C)CC(=O)N[C@@H](CCc2cc(F)c(C(F)(F)F)c(F)c2)C(=O)N2C[C@@H](C)C[C@H]2C(=O)NC2(CC(C)(C)C2)C(=O)N(C)[C@@H](C2CCCC2)C(=O)N(C)[C@H](C(=O)N(C)CC)CC(=O)N1C [PP2471]		A (a compound having 10 or more and less than 20 is denoted as A)	A (a compound having 10 or more and less than 20 is denoted as A)	15.3					0.16
CC[C@H](C)[C@@H]1NC(=O)[C@H](CC)N(C)C(=O)C[C@@H](C(=O)N(C)C)N(C)C(=O)[C@H](C2CCCC2)N(C)C(=O)C2(CCC2)NC(=O)[C@@H]2C[C@H](C)CN2C(=O)[C@H](CCc2cc(F)c(C(F)(F)F)c(F)c2)NC(=O)CN(C)C(=O)[C@H](CC2CCCCC2)N2CC/C=C\C[C@@H](C2=O)N(C)C(=O)CN(C)C1=O [PP1471]					0.25	A (a compound having 10 or more and less than 20 is denoted as A)	A (a compound having 10 or more and less than 20 is denoted as A)	48.2	
CCO[C@@H]1C[C@H]2C(=O)NC3(CCC3)C(=O)N(C)[C@@H](C(CC)CC)C(=O)N(C)[C@H](C(=O)N(C)C)CC(=O)N(C)[C@@H](CC3CC3)C(=O)N[C@@H]([C@@H](C)CC)C(=O)N(C)CC(=O)N(C)[C@H]3C/C=C\CCN(C3=O)[C@@H](Cc3ccc(C(F)(F)F)cc3)C(=O)N(C)CC(=O)N[C@@H](CCc3ccc(C(F)(F)F)c(OC)c3)C(=O)N2C1 [PP1211]					0.27	A (a compound having 10 or more and less than 20 is denoted as A)	B (a compound having 3 or more and less than 10 is denoted as B)	26.8	
CCO[C@@H]1C[C@H]2C(=O)NC3(CCC3)C(=O)N(C)[C@@H](C3CCCC3)C(=O)N(C)[C@H](C(=O)N(C)C)CC(=O)N(C)[C@@H](CC3CCCC3)C(=O)N[C@@H]([C@@H](C)CC)C(=O)N(C)CC(=O)N(C)[C@H]3C/C=C\CCN(C3=O)[C@@H](Cc3ccc(C(F)(F)F)cc3)C(=O)N(C)CC(=O)N[C@@H](CCc3ccc4sccc4c3)C(=O)N2C1 [PP1261]					0.44	A (a compound having 10 or more and less than 20 is denoted as A)	A (a compound having 10 or more and less than 20 is denoted as A)	76.8	
CCC[C@H]1C(=O)N[C@@H]([C@@H](C)CC)C(=O)N(C)CC(=O)N(C)[C@H]2C/C=C\CCN(C2=O)[C@@H](Cc2ccc(C)cc2)C(=O)N(C)CC(=O)N[C@@H](CCc2ccc(C(F)(F)F)c(Cl)c2)C(=O)N2CC[C@H](OC)[C@H]2C(=O)N(C)C2(CCC2)C(=O)N(C)[C@@H](C2CCCC2)C(=O)N(C)[C@H](C(=O)N(C)C)CC(=O)N1C [PP3237]	0.057	A (a compound having 10 or more and less than 20 is denoted as A)	B (a compound having 3 or more and less than 10 is denoted as B)	6.1					
CCC[C@H]1C(=O)N[C@@H]([C@@H](C)CC)C(=O)N(C)CC(=O)N(C)[C@H]2C/C=C\CCN(C2=O)[C@@H](Cc2ccc(C)cc2)C(=O)N(C)CC(=O)N[C@@H](CCc2cc(F)c(C(F)(F)F)c(F)c2)C(=O)N2C[C@H](OCC)C[C@H]2C(=O)NC2(CC(C)(C)C2)C(=O)N(C)[C@@H](CC2CCC2)C(=O)N(C)[C@H](C(=O)N(C)C)CC(=O)N1C [PP2751]		A (a compound having 10 or more and less than 20 is denoted as A)	A (a compound having 10 or more and less than 20 is denoted as A)	39.3					0.85
CCC[C@H]1C(=O)N[C@@H](C2CCCC2)C(=O)N(C)CC(=O)N(C)[C@H]2C/C=C\CCN(C2=O)[C@@H](Cc2ccc(C(F)(F)F)cc2)C(=O)N(C)CC(=O)N[C@@H](CCc2ccc(C(F)(F)F)c(OC)c2)C(=O)N2CC3(CC3)C[C@H]2C(=O)N(C)C2(CCC2)C(=O)N(C)[C@@H](CC(C)(C)C)C(=O)N(C)[C@H](C(=O)N(C)C)CC(=O)N1C [PP3317]	0.069	B (a compound having 3 or more and less than 10 is denoted as B)	B (a compound having 3 or more and less than 10 is denoted as B)	2.5					
CCO[C@@H]1C[C@H]2C(=O)NC3(CCC3)C(=O)N(C)[C@@H](C3CCCC3)C(=O)N(C)[C@H](C(=O)N3CCCC3)CC(=O)N(C)[C@@H](CC3CCCC3)C(=O)N[C@@H]([C@@H](C)CC)C(=O)N(C)CC(=O)N(C)[C@H]3C/C=C\CCN(C3=O)[C@@H](Cc3ccc(F)cc3)C(=O)N(C)CC(=O)N[C@@H](CCc3ccc4sccc4c3)C(=O)N2C1 [PP1391]					1.6	A (a compound having 10 or more and less than 20 is denoted as A)	A (a compound having 10 or more and less than 20 is denoted as A)	271	
CC[C@H](C)[C@@H]1NC(=O)[C@H](CC)N(C)C(=O)C[C@@H](C(=O)N(C)C)N(C)C(=O)[C@H](C2CCCC2)N(C)C(=O)C2(CCC2)NC(=O)[C@@H]2C[C@H](F)CN2C(=O)[C@H](CCc2cc(F)c(C(F)(F)F)c(F)c2)NC(=O)CN(C)C(=O)[C@H](Cc2ccc(C(F)(F)F)cc2)N2CC/C=C\C[C@@H](C2=O)N(C)C(=O)CN(C)C1=O [PP1132]					0.066	A (a compound having 10 or more and less than 20 is denoted as A)	B (a compound having 3 or more and less than 10 is denoted as B)	86.8	
CCOC[C@H]1C(=O)N[C@@H]([C@@H](C)CC)C(=O)N(C2CC2)CC(=O)N(C)[C@H]2C/C=C\CCN(C2=O)[C@@H](Cc2ccc(C)cc2)C(=O)N(C)CC(=O)N[C@@H](CCc2ccc(Cl)c(Cl)c2)C(=O)N2C[C@H](OCC)C[C@H]2C(=O)NC2(CC(C)(C)C2)C(=O)N(C)[C@@H](CC2CCC2)C(=O)N(C)[C@H](C(=O)N(C)C)CC(=O)N1C [PP2762]		A (a compound having 10 or more and less than 20 is denoted as A)	A (a compound having 10 or more and less than 20 is denoted as A)	122					2.9
CCO[C@@H]1C[C@H]2C(=O)NC3(CCC3)C(=O)N(C)[C@@H](C3CCCC3)C(=O)N(C)[C@H](C(=O)N3CCOCC3)CC(=O)N(C)[C@@H](C)C(=O)N[C@@H]([C@@H](C)CC)C(=O)N(C)CC(=O)N(C)[C@H]3CCCCCN(C3=O)[C@@H](Cc3ccc(F)cc3)C(=O)N(C)CC(=O)N[C@@H](CCc3cc(F)c(C(F)(F)F)c(F)c3)C(=O)N2C1 [PP1175]					0.16	B (a compound having 3 or more and less than 10 is denoted as B)	B (a compound having 3 or more and less than 10 is denoted as B)	23.5	
CCOC[C@H]1C(=O)N[C@@H]([C@@H](C)CC)C(=O)N(C)CC(=O)N(C)[C@H]2C/C=C\CCN(C2=O)[C@@H](CC2CCCCC2)C(=O)N(C)CC(=O)N[C@@H](CCc2ccc(C(F)(F)F)c(OC)c2)C(=O)N2C[C@H](OCC)C[C@H]2C(=O)NC2(CC(C)(C)C2)C(=O)N(C)[C@@H](C(CC)CC)C(=O)N(C)[C@H](C(=O)N(C)C)CC(=O)N1C [PP2470]		A (a compound having 10 or more and less than 20 is denoted as A)	A (a compound having 10 or more and less than 20 is denoted as A)	118					1.8
